Laboratory results reported in EP2310009B1, “PARENTERAL AND ORAL FORMULATIONS OF BENZIMIDAZOLES” (UNIVERSITY OF HOUSTON, priority 2008, dated 2010).

What was measured:
[1] = Mebendazole release from SNEDDS, SEDDS, cosolvent and unformulated suspension; type: physicochemical; conditions: 60 minutes; unformulated drug in release media with placebo SNEDDS
human plasma protein = conditions: cited from earlier work

extent of drug release [1]: 1.10%
SMILES: COC(=O)Nc1nc2ccc(C(=O)c3ccccc3)cc2[nH]1 [MZ, methyl 5-benzoylbenzimidazole-2-carbamate]
drug bound to human plasma protein (human plasma protein): about 90%
